Consider one compound from doi:10.1101/2021.09.28.462164v1 (biorxiv, 2021).

Common to all, as to type: cell-based
What all share (settings): 30 C; extract in 50 mM Tris-HCl pH 7.5; described as competitive inhibitor

The target of test [1] is T1, HsHK1 (Homo sapiens, UniProt P19367, G679A).
T1 sequence (P19367 1-917 G679A): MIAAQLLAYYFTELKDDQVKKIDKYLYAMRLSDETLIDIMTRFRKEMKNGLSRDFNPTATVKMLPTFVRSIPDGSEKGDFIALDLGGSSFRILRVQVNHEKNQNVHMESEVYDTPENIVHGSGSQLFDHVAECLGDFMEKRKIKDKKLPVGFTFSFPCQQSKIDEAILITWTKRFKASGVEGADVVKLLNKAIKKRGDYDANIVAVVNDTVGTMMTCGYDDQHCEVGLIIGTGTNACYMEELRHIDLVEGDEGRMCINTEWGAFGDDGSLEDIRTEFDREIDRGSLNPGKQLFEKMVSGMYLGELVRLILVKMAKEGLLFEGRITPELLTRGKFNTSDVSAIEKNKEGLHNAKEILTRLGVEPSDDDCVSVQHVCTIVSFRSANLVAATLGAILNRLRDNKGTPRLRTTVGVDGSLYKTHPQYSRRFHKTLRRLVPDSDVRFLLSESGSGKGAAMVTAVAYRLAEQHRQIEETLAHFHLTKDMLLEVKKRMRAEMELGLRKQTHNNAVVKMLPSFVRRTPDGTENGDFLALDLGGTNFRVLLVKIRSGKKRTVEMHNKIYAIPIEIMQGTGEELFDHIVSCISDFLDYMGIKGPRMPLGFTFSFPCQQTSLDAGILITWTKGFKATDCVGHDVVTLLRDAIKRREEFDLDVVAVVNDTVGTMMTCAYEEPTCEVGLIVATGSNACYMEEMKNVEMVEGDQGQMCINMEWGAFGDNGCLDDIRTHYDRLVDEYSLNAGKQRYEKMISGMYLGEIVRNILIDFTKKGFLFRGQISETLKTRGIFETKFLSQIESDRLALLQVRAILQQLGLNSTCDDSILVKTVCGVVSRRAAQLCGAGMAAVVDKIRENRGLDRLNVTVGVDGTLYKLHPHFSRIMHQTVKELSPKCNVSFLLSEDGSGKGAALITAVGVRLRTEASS

The target in test [2] is T2, HsHK1 (Homo sapiens, UniProt P19367).
T2 sequence (P19367 1-917): T1 sequence (P19367 1-917 G679A) with A679G

The target in test [3] is T3, HsHK2 (Homo sapiens, UniProt P52789, L776F).
T3 sequence (P52789 1-917 L776F): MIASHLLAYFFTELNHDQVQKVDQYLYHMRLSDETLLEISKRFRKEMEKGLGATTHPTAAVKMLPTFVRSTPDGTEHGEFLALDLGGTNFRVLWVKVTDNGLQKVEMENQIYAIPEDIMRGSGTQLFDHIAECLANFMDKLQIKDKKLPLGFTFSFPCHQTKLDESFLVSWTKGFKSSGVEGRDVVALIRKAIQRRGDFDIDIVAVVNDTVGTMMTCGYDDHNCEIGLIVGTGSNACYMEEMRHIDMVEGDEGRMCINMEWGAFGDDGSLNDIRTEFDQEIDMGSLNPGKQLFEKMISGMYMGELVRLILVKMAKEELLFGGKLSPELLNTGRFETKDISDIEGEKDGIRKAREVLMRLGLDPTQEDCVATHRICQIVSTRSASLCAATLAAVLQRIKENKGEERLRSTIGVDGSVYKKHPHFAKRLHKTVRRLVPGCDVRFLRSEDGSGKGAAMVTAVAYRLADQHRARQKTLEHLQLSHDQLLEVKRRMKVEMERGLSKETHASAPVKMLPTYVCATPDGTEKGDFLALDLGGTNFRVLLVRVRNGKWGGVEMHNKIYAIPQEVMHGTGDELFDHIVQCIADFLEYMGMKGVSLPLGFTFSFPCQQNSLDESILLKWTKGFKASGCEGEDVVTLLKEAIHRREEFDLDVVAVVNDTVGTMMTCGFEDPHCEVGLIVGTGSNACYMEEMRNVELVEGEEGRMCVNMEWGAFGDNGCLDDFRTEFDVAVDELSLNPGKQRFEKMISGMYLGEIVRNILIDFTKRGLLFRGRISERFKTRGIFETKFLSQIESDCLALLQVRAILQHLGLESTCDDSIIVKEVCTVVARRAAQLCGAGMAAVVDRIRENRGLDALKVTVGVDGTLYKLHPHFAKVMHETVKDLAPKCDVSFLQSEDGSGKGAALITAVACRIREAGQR

In test [4] the target is T4, HsHK2 (Homo sapiens, UniProt P52789).
T4 sequence (P52789 1-917): T3 sequence (P52789 1-917 L776F) with F776L

Numbering of substitutions follows the chain as printed.

For orientation: IC50 means the midpoint of a concentration-inhibition curve. Take `O=P(O)(O)OC[C@H]1OC(O)[C@H](O)[C@@H](O)[C@@H]1O` (stereo partly shown) [glucose-6-phosphate]: the IC50 in test [1] amounted to 320 ± 100 µM; in test [2] it was 38 ± 15 µM; in test [3], 260 ± 200 µM; in test [4] it was 87 ± 21 µM.
